{"source": "patent US8809386B2", "about": "“Use of dynamin ring stabilizers” (Children's Medical Research Institute, priority 2009, dated 2014)", "key": {"[1]": {"system": "mouse expressing ‘gain of function’ α-actinin 4 mutant protein", "test": "Proteinuria in mouse expressing gain of function α-actinin 4 mutant", "assay_type": "in vivo", "details": "IP, 166 μg/100 g body weight, up to 6 hours after administration, FIG. 20", "method": "FIG. […] Proteinuria was measured using mouse Albumin-specific ELISA and Creatinine Companion assay kits (Exocell and Bethyl Laboratories) following manufacturer's protocols.\nMice expressing a ‘gain of function’ mutation in the ACTN4 gene encoding for α-actinin 4 has been fully characterized (Kaplan et al. 2000; Henderson et al. 2008; Yao et al. 2004). These animals develop FP effacement and proteinuria due to “hyper bundling” activity of α-actinin 4 mutant that induces aggregation of stress fibers. Proteinuria develops at 4-6 weeks of age. The animals used in the present study were obtained from Dr. Martin Pollak, Brigham and Women's Hospital, Boston, Mass., USA. Proteinuric phenotype was confirmed by determination of urinary albumin and creatinine using mouse Albumin-specific ELISA and Creatinine Companion assay kits (Exocell and Bethyl Laboratories) following the manufacturer's protocols. The control animal was a litermate. Bis-T-23 was dissolved in 100% DMSO to make a 10 μg/μl stock solution, of which 5 μl was diluted in 200 μl of 1×PBS, and this was injected intraperitoneally (IP) into the test animal (166 μg/100 g body weight) at time 0 hr. Protein levels in the urine were measured every 2 hours post injection."}, "[2]": {"system": "LPS-induced proteinuria, BALB/c mice", "test": "LPS-induced proteinuria in mice", "assay_type": "in vivo, mouse", "details": "IP, 300 μg per 100 g body weight", "method": "FIG. 21 is a graph showing that the ring stabilizer Bis-T-23 rescues proteinuria in lipopolysaccharide (LPS) treated mice. LPS is a model for proteinuric kidney disease. Albumin levels were determined in 6 mice prior to (Con), 24 hours after LPS injection (2×LPS), and 2, 4, 6 and 8 h after administration of Bis-T-23 (open bars) or DMSO (delivery solution, grey bars). A decrease in proteinuria was noted from 2-8 hours after administration of a single dose of this ring stabilizer.\nA second model of acute proteinuria was then employed to test the ability of a dynamin ring stabilizer to ameliorate proteinuria in a reversible model of proteinuric kidney disease. LPS-induced proteinuria was utilized as previously described (Sever et al., 2007). Briefly, four week old female BALB/c mice were injected twice intraperitoneally (IP) with 200 μg of ultrapure LPS diluted in phosphate-buffered saline at a concentration of 1 mg/ml. Proteinuria developed within 48 h (FIG. 20, 2×LPS). Bis-T-23 was dissolved in DMSO to the appropriate concentrations and 300 μg per 100 g body weight was delivered by IP injection, and DMSO was used as a vehicle control. The level of protein in the urine was determined by using mouse Albumin-specific ELISA kit according to manufacturer's protocol (Bethyl Laboratories)."}, "[3]": {"system": "truncated dynamin I construct known as GG2", "test": "Basal GTPase activity of assembly-incompetent dynamin construct GG2", "assay_type": "biochemical", "details": "FIG. 5", "from_the_text": "FIG. 5 is a graph showing the basal GTPase activity of the truncated dynamin I construct known as GG2, containing only the GTPase domain linked to a small part of the GED domain (Chappie et al 2009). Unlike full length dynamin this construct is known to be unable to self-assemble or to form rings. Bis-T-22 and -23 and imminodyn-22 have no effect on the basal activity of this assembly-incompetent construct.\nTo verify that ring stabilizers require dynamin oligomerisation, a recombinant form of dynamin, called GG-2, which is dimeric yet is unable to self-associate into higher order oligomers (Chappie et al 2009) was tested. Ring stabilizers are unable to stimulate the basal activity of such constructs (FIG. 5)."}, "dynamin": {"system": "dynamin", "test": "Electron microscopy of helical dynamin on PS liposomes", "assay_type": "biochemical", "details": "5 μM, FIG. 8", "from_the_text": "FIGS. 8 (A) to (D) are electron micrographs showing Bis-T-23 prevents constriction or helical expansion of dynamin on PS liposomes in vitro. It stabilizes the dynamin helix, which loses its flexibility and forms uniform diameter rings, inhibiting dynamin ring disassembly.\nA characteristic of helical dynamin is that the helix is a highly flexible structure. Upon GTP hydrolysis it is able to rapidly reduce its diameter (constriction) while also expanding in length (helical expansion) (Stowell et al. 1999; Chen et al. 2004; Roux et al. 2006). This is thought to be a potential mechanism utilized for the fission of the necks of newly budded endocytic vesicles in cells (Roux et al. 2006). The highly flexible nature of helical dynamin was confirmed by EM analysis of dynamin bound to phosphatidylserine liposomes in the absence of GTP or GDP (FIG. 8). Dynamin mixed with PS liposomes formed a helix with specific characteristics (FIGS. 8A and C): the individual loops of the helix were highly varied in diameter, formed at different angles relative to the underlying lipid, and the spacing between loops was highly variable. […] Bis-T-23 bound dynamin appeared similar to previous reports of GTPγS-bound dynamin on lipid nanotubes (Stowell et al. 1999)."}, "native brain dynamin I": {"molecular_target": "native brain dynamin I (Ovis aries, UniProt A0ACI6NZN1)", "sequence (A0ACI6NZN1 entry or part of it)": "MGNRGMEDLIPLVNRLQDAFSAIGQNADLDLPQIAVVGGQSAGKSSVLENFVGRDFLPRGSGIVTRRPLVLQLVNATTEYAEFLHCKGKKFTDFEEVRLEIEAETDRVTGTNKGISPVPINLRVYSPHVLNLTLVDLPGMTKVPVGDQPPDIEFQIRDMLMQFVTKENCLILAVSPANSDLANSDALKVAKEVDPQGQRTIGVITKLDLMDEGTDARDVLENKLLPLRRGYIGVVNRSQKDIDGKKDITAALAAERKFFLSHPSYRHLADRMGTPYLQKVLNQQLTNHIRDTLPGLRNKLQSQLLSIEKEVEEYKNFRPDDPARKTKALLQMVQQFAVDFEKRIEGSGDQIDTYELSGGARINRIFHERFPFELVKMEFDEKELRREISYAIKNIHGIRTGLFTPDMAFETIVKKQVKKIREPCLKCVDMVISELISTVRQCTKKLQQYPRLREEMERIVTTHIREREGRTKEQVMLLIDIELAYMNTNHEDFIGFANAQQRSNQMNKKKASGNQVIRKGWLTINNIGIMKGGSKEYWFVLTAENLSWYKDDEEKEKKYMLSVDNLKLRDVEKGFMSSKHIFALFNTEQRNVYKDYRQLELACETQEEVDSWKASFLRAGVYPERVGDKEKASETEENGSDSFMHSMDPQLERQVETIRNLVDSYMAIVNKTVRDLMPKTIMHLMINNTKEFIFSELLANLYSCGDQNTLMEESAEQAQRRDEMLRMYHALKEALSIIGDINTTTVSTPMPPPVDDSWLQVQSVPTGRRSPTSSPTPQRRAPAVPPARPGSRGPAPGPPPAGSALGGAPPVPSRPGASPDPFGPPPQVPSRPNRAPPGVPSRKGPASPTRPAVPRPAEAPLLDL", "test": "PS liposome-stimulated (helical) dynamin I GTPase activity, inhibition", "assay_type": "biochemical, sheep", "details": "5 μM, increasing dynamin concentrations, FIG. 1", "method": "Each of the dyngo compounds was synthesized by a simple one-step condensation reaction coupling 3-hydroxy-2-naphthoic acid hydrazide with a variety of hydroxyl substituted benzaldehydes affording a focussed library as illustrated by Scheme 1 below (e.g., by mixing the reagents in ethanol (e.g., 10 ml) in a round bottomed flask, refluxing the mixture for 2 hours, allowing it to cool and removing the solvent in vacuo prior to recrystallizing the product from ethanol although other synthesis methods available).\nAmong the various classes of dynamin inhibitors are subsets of dynamin ring stabilizers."}}}
{"smiles": "N#CC(=Cc1cc(O)c(O)c(O)c1)C(=O)NCCCNC(=O)C(C#N)=Cc1cc(O)c(O)c(O)c1", "note": "[Bis-T-23, 2-cyano-N-{3-[2-cyano-3-(3,4,5-trihydroxyphenyl)-acryloylamino]-propyl}-3-(3,4,5-trihydroxyphenyl)-acrylamide]", "values": [{"measurement": "proteinuria (urinary albumin and creatinine)", "setting": "[1]", "result": "decrease in proteinuria to wild-type levels"}, {"measurement": "proteinuria (urine albumin)", "setting": "[2]; 2-6 h after injection, FIG. 21", "result": "partially rescued proteinuria"}, {"measurement": "proteinuria (urine albumin)", "setting": "[2]; 8 h after injection", "result": "ability to rescue proteinuria was reduced"}, {"measurement": "effect on basal GTPase activity of GG2", "setting": "[3]", "result": "no effect"}, {"measurement": "shape of dynamin helix on PS liposomes", "setting": "dynamin", "result": "drastically altered the helical shape"}, {"measurement": "inhibition of liposome-stimulated dynamin GTPase activity", "setting": "native brain dynamin I", "result": "potently inhibits dynamin at all points"}]}
